Experimental data from PubChem BioAssay AID1259407 (Chemical Carcinogenesis Research Information System (CCRIS), 2018).
Activity calls are given as the source filed them. How the calls were made is not given here.

Test system: CCRIS mutagenicity, Ames/micronucleus/aberration tests
Assay: CCRIS mutagenicity studies
[1] = Test System: AMES SALMONELLA TYPHIMURIUM, Strain/Indicator: TA98, Metabolic Activation: NONE, Method: STANDARD PLATE
[2] = Test System: AMES SALMONELLA TYPHIMURIUM, Strain/Indicator: TA100, Metabolic Activation: NONE, Method: STANDARD PLATE
[3] = Test System: AMES SALMONELLA TYPHIMURIUM, Strain/Indicator: TA97, Metabolic Activation: NONE, Method: PREINCUBATION
[4] = Test System: AMES SALMONELLA TYPHIMURIUM, Strain/Indicator: TA98, Metabolic Activation: S-9, Method: STANDARD PLATE
[5] = Test System: AMES SALMONELLA TYPHIMURIUM, Strain/Indicator: TA100, Metabolic Activation: S-9, Method: STANDARD PLATE

Measured: mutagenic call

O=C(c1ccccc1)[C@H]1O[C@H]1c1ccc(F)cc1
inactive: Test System: AMES SALMONELLA TYPHIMURIUM, Strain/Indicator: TA98, Metabolic Activation: NONE, Method: PREINCUBATION (PHOSPHATE-BUFFERED KCL OR SOLUTE-FREE WATER MEDIA) inactive; negative | [1] inactive; negative | Test System: AMES SALMONELLA TYPHIMURIUM, Strain/Indicator: TA98, Metabolic Activation: RAT, LIVER, S-9, AROCLOR 1254, Method: STANDARD PLATE inactive; negative | Test System: AMES SALMONELLA TYPHIMURIUM, Strain/Indicator: TA100, Metabolic Activation: NONE, Method: PREINCUBATION (PHOSPHATE-BUFFERED KCL OR SOLUTE-FREE WATER MEDIA) inactive; negative | [2] inactive; negative | Test System: AMES SALMONELLA TYPHIMURIUM, Strain/Indicator: TA100, Metabolic Activation: RAT, LIVER, S-9, AROCLOR 1254, Method: STANDARD PLATE inactive; negative | Test System: AMES SALMONELLA TYPHIMURIUM, Strain/Indicator: TA104, Metabolic Activation: NONE, Method: PREINCUBATION (PHOSPHATE-BUFFERED KCL OR SOLUTE-FREE WATER MEDIA) inactive; negative | Test System: CHINESE HAMSTER V-79, Strain/Indicator: V-79 (HPRT)/6-THIOGUANINE, Metabolic Activation: NONE inactive; negative

COC(F)(F)C(Cl)Cl
inactive: Test System: AMES SALMONELLA TYPHIMURIUM, Strain/Indicator: TA97, Metabolic Activation: HAMSTER, LIVER, S-9, AROCLOR 1254 (10 OR 30%), Method: PREINCUBATION inactive; negative | [3] inactive; negative | Test System: AMES SALMONELLA TYPHIMURIUM, Strain/Indicator: TA97, Metabolic Activation: RAT, LIVER, S-9, AROCLOR 1254 (10 OR 30%), Method: PREINCUBATION inactive; negative | Test System: AMES SALMONELLA TYPHIMURIUM, Strain/Indicator: TA98, Metabolic Activation: HAMSTER, LIVER, S-9, AROCLOR 1254 (10 OR 30%), Method: PREINCUBATION inactive; negative | Test System: AMES SALMONELLA TYPHIMURIUM, Strain/Indicator: TA98, Metabolic Activation: HAMSTER, LIVER, S-9, AROCLOR 1254 (30%), Method: DESICCATOR inactive; negative | Test System: AMES SALMONELLA TYPHIMURIUM, Strain/Indicator: TA98, Metabolic Activation: NONE, Method: DESICCATOR inactive; negative | Test System: AMES SALMONELLA TYPHIMURIUM, Strain/Indicator: TA98, Metabolic Activation: NONE, Method: PREINCUBATION inactive; negative | Test System: AMES SALMONELLA TYPHIMURIUM, Strain/Indicator: TA98, Metabolic Activation: RAT, LIVER, S-9, AROCLOR 1254 (10 OR 30%), Method: PREINCUBATION inactive; negative | Test System: AMES SALMONELLA TYPHIMURIUM, Strain/Indicator: TA98, Metabolic Activation: RAT, LIVER, S-9, AROCLOR 1254 (30%), Method: DESICCATOR inactive; negative | Test System: AMES SALMONELLA TYPHIMURIUM, Strain/Indicator: TA100, Metabolic Activation: HAMSTER, LIVER, S-9, AROCLOR 1254 (10 OR 30%), Method: PREINCUBATION inactive; negative | Test System: AMES SALMONELLA TYPHIMURIUM, Strain/Indicator: TA100, Metabolic Activation: HAMSTER, LIVER, S-9, AROCLOR 1254 (30%), Method: DESICCATOR inactive; negative | Test System: AMES SALMONELLA TYPHIMURIUM, Strain/Indicator: TA100, Metabolic Activation: NONE, Method: DESICCATOR inactive; negative | Test System: AMES SALMONELLA TYPHIMURIUM, Strain/Indicator: TA100, Metabolic Activation: NONE, Method: PREINCUBATION inactive; negative | Test System: AMES SALMONELLA TYPHIMURIUM, Strain/Indicator: TA100, Metabolic Activation: RAT, LIVER, S-9, AROCLOR 1254 (10 OR 30%), Method: PREINCUBATION inactive; negative | Test System: AMES SALMONELLA TYPHIMURIUM, Strain/Indicator: TA100, Metabolic Activation: RAT, LIVER, S-9, AROCLOR 1254 (30%), Method: DESICCATOR inactive; negative | Test System: AMES SALMONELLA TYPHIMURIUM, Strain/Indicator: TA1535, Metabolic Activation: HAMSTER, LIVER, S-9, AROCLOR 1254 (10 OR 30%), Method: PREINCUBATION inactive; negative | Test System: AMES SALMONELLA TYPHIMURIUM, Strain/Indicator: TA1535, Metabolic Activation: NONE, Method: PREINCUBATION inactive; negative | Test System: AMES SALMONELLA TYPHIMURIUM, Strain/Indicator: TA1535, Metabolic Activation: RAT, LIVER, S-9, AROCLOR 1254 (10 OR 30%), Method: PREINCUBATION inactive; negative

O=CC(O)C(O)C(O)C(O)CO (stereo unspecified)
inactive: [3] inactive; negative | Test System: AMES SALMONELLA TYPHIMURIUM, Strain/Indicator: TA97, Metabolic Activation: S-9, Method: PREINCUBATION inactive; negative | Test System: AMES SALMONELLA TYPHIMURIUM, Strain/Indicator: TA102, Metabolic Activation: NONE, Method: PREINCUBATION inactive; negative | Test System: AMES SALMONELLA TYPHIMURIUM, Strain/Indicator: TA102, Metabolic Activation: S-9, Method: PREINCUBATION inactive; negative

CC(=O)c1cc(O)c(C(C)C)c2cc(C)c(-c3c(C)cc4c(C(C)C)c(O)c(O)c(C=O)c4c3O)c(O)c12
inactive: Test System: AMES SALMONELLA TYPHIMURIUM, Strain/Indicator: TA97A, Metabolic Activation: S-9, Method: STANDARD PLATE inactive; negative | [4] inactive; negative | [5] inactive; negative | Test System: AMES SALMONELLA TYPHIMURIUM, Strain/Indicator: TA102, Metabolic Activation: S-9, Method: STANDARD PLATE inactive; negative

CCCCOc1cc(C)ccc1C(=O)NOC(C)=O
active: [2] active; positive | Test System: AMES SALMONELLA TYPHIMURIUM, Strain/Indicator: TA100, Metabolic Activation: RAT, S-9, AROCLOR, Method: STANDARD PLATE active; positive

CC1(c2ccc(Oc3ccccc3)cc2)OC(=O)N(Nc2ccccc2)C1=O (stereo unspecified)
inactive: End Point: In vitro chromosomal aberrations, Test System: Human (male and female) lymphocytes, Metabolic Activation: None inactive; negative | End Point: In vitro chromosomal aberrations, Test System: Human (male and female) lymphocytes, Metabolic Activation: S-9 inactive; negative | End Point: In vivo micronucleus, Test System: Bone marrow polychromatic erythrocytes, Species: Mouse, Strain/Sex: Crl:CD-1(ICR)BR/Male and female inactive; negative | End Point: UDS, Species: Rat, Strain/Sex: Sprague-Dawley Crl:CD BR/Male, Route: Oral inactive; negative | Test System: Ames Salmonella typhimurium, Strain/Indicator: TA97, Metabolic Activation: None, Method: Plate incorporation inactive; negative | Test System: Ames Salmonella typhimurium, Strain/Indicator: TA97, Metabolic Activation: Rat, Liver, S-9, Method: Plate incorporation inactive; negative | Test System: Ames Salmonella typhimurium, Strain/Indicator: TA98, Metabolic Activation: None, Method: Plate incorporation inactive; negative | Test System: Ames Salmonella typhimurium, Strain/Indicator: TA98, Metabolic Activation: Rat, Liver, S-9, Method: Plate incorporation inactive; negative | Test System: Ames Salmonella typhimurium, Strain/Indicator: TA100, Metabolic Activation: None, Method: Plate incorporation inactive; negative | Test System: Ames Salmonella typhimurium, Strain/Indicator: TA100, Metabolic Activation: Rat, Liver, S-9, Method: Plate incorporation inactive; negative | Test System: Ames Salmonella typhimurium, Strain/Indicator: TA1535, Metabolic Activation: None, Method: Plate incorporation inactive; negative | Test System: Ames Salmonella typhimurium, Strain/Indicator: TA1535, Metabolic Activation: Rat, Liver, S-9, Method: Plate incorporation inactive; negative | Test System: Chinese hamster ovary cells, Strain/Indicator: CHO-K1-BH4 (HGPRT), Metabolic Activation: None, Method: Suspension/plate? inactive; negative | Test System: Chinese hamster ovary cells, Strain/Indicator: CHO-K1-BH4 (HGPRT), Metabolic Activation: Rat, Liver, S-9, Method: Suspension/plate? inactive; negative | Test System: E. coli, Strain/Indicator: WP2 uvrA (pKM101), Metabolic Activation: None, Method: Plate incorporation inactive; negative | Test System: E. coli, Strain/Indicator: WP2 uvrA (pKM101), Metabolic Activation: Rat, Liver, S-9, Method: Plate incorporation inactive; negative

[N-]=[N+]=N[C@@H](c1ccccc1)[C@H](O)CO
active: Test System: AMES SALMONELLA TYPHIMURIUM, Strain/Indicator: TA100, Metabolic Activation: RAT, LIVER, S-9, PCB, Method: PREINCUBATION active; positive

Nc1ccc(/C=C/c2ccc([N+](=O)[O-])cc2)cc1
active: Test System: AMES SALMONELLA TYPHIMURIUM, Strain/Indicator: TA98 (NR), Metabolic Activation: S-9, Method: STANDARD PLATE active; positive | [1] active; positive | [4] active; positive | Test System: AMES SALMONELLA TYPHIMURIUM, Strain/Indicator: TA100 (NR), Metabolic Activation: S-9, Method: STANDARD PLATE active; positive | [5] active; positive
inactive: Test System: AMES SALMONELLA TYPHIMURIUM, Strain/Indicator: TA98 (NR), Metabolic Activation: NONE, Method: STANDARD PLATE inactive; negative | Test System: AMES SALMONELLA TYPHIMURIUM, Strain/Indicator: TA100 (NR), Metabolic Activation: NONE, Method: STANDARD PLATE inactive; negative | [2] inactive; negative
